Data on 28 sequences can be found in paper PMC6179248, “Peanut-specific T cell responses in patients with different clinical reactivity” (PLoS ONE, 2018).

Assay [1] relates to PBMC from peanut allergic and non-allergic donors (IL-5 production). In words: IL-5 ELISPOT with individual peptides after 14-day in vitro expansion (epitope mapping). Type of assay: cell-based, human. The following applies: SFC per 10^6 PBMC, individual peptide 10 μg/ml, 24 h, after 14-day culture; for IL-5 Average SFC (allergics): allergic donors; for IL-5 Average SFC (controls): non-allergic controls. As to the method:
(§1) For in vitro expansions, PBMCs were thawed and cultured in RPMI 1640 (Omega Scientific, Tarzana, CA) supplemented with 5% human AB serum (Gemini Bio-Products, West Sacramento, CA) at a density of 2 × 10^6 cells per mL in 24-well plates (Corning, San Diego, CA) and stimulated with peanut extract (10 μg/ml) or peptide pools at 5 μg/mL. Cells were kept at 37°C, 5% CO2, and additional IL-2 (10 U/mL; ThermoFisher, San Diego, CA) was added every 3 days after initial antigenic stimulation. On day 14, cells were harvested and reactivity against peanut extract (10 μg/ml), peanut specific peptide pools (5 μg/ml) and individual peptides (10 μg/ml) was assessed. The production of IL-5 and IFNγ post-stimulation with peanut extract was analyzed in dual ELISPOT assays. Flat-bottom 96-well nitrocellulose plates (Millipore, Bedford, MA) were prepared according to the manufacturer’s instructions and coated with either 10 μg/ml of both anti-human IL-5 (clone TRFK5) and anti-human IFNγ (clone 1-D1K) or anti-human IL-10 (clone 9D7) and anti-human IL-17 (clone MT44.6) (Mabtech, Cincinnati, OH). PBMC were then incubated at a density of 1 × 10^5/well either with peptide pools (5 μg/ml) or individual peptides (10 μg/ml), peanut extract (10 μg/ml), PHA (10 μg/ml), or medium containing 0.25% DMSO (corresponding to the highest percentage of DMSO in the pools/peptides condition) as a control. After 24 h, cells were removed, and plates were incubated with a cocktail containing either biotinylated anti-human IL-5 (1:50 dilution) (clone 5A10) and horseradish peroxidase (HRP)-conjugated anti-human IFNγ (1:200 dilution) (clone 7-B6-1) or biotinylated anti-human IL-17 (1:200 dilution) (clone MT504) anti-human alkaline phosphatase (AP)-conjugated IL-10 (1:200 dilution) (clone 12G8) (Mabtech, Cincinnati, OH) at 37°C. After 2 h, spots corresponding to the biotinylated IL-5 Ab were developed by incubation with Alkaline-phosphatase-Complex (Vector Laboratories, Burlingame, CA) and then visualized by applying the Vector Blue Alkaline Phosphatase Substrate Kit III (Vector Laboratories, Burlingame, CA) according to the manufacturer’s instructions. Spots corresponding to the HRP-conjugated anti-human IFNγ Ab were visualized by incubation with 3-amino-9-ethylcarvazole solution (Sigma-Aldrich, St. Louis, MO). Spots were counted by computer-assisted image analysis (KS-ELISPOT reader, Zeiss, Munich). Each assay was performed in triplicate. The level of statistical significance was determined with a Student t test using the mean of triplicate values of the response against relevant pools or individual peptides versus the response against the DMSO control. Criteria for response positivity were 20 spot-forming cells (SFCs)/10^6 PBMC, p ≤ 0.05, and a stimulation index (SI) ≥ 2. SFCs are measured per 10^5 PBMC, subsequently readings are background subtracted and multiplied by 10 to be expressed as SFC per million PBMC. T cell epitope mapping was performed to determine epitopes from the major peanut allergens Ara h 1, 2 and 3, recognized by peanut allergic (n = 11) and non-allergic (n = 10) donors. As these studies were performed with samples obtained from pediatric patients, available blood sample volumes were limiting. To overcome this limitation, small pools of predicted peptides matched to the HLA molecules expressed in each donor were tested. For each donor, class II binding affinity predictions were performed using algorithms available through the IEDB (www.iedb.org)[18], to identify the top 6 predicted binders for each of the alleles expressed at the four HLA class II loci (DRB1, DRB3/4/5, DQB1, and DPB1). Accordingly, the screening load for each donor was reduced from 400 peptides to a maximum of 48 peptides (6 peptides x ≤8 class II molecules, less for homozygous donors). The six top predicted peptides for each allele were used to generate allele-specific pools, which were in turn used to expand peanut-specific cells in vitro. […]

Assay [2] deals with PBMC from peanut allergic and non-allergic donors (IFNγ production). In words: IFNγ ELISPOT with individual peptides after 14-day in vitro expansion (epitope mapping). Type of assay: cell-based, human. Particulars: SFC per 10^6 PBMC, individual peptide 10 μg/ml, 24 h, after 14-day culture; for IFNg Average SFC (allergics): allergic donors; for IFNg Average SFC (controls): non-allergic controls. The protocol:
as §1

Turning to “TLNAHTIVVALNGRA [Ara h 3 15-mer, position 391]”, in assay [1], the “IL-5 Average SFC (allergics)” value was determined as 97 SFC and the “IL-5 Average SFC (controls)” value was found to be 64 SFC. Further, in assay [2], the “IFNg Average SFC (allergics)” value was found to be 16 SFC and the “IFNg Average SFC (controls)” value is given as 61 SFC.
Regarding “NHRIVQIEARPNTLV [Ara h 1 15-mer, position 211]”, the “IL-5 Average SFC (controls)” value in assay [1] was found to be 427 SFC. In assay [2], the “IFNg Average SFC (controls)” value is 303 SFC.
As for “KAMVIVVINKGTGNL [Ara h 1 15-mer, position 451]”, the “IL-5 Average SFC (controls)” value in assay [1] came out at 53 SFC. Also, the “IFNg Average SFC (controls)” value in assay [2] came to 43 SFC.
The like results for “VTVKGGLRILSPDEE [Ara h 3 15-mer, position 276]” were, in that order, 653 SFC and 433 SFC.
As to “EQGAIVTVKGGLRIL [Ara h 3 15-mer, position 271]”, in assay [1], the “IL-5 Average SFC (allergics)” value was determined as 0 SFC and the “IL-5 Average SFC (controls)” value is 182 SFC. Besides, in assay [2], the “IFNg Average SFC (allergics)” value came to 0 SFC and the “IFNg Average SFC (controls)” value was 220 SFC.
“ILVAPALFLLAAHAS [Ara h 2 15-mer, position 6]”: in assay [1], the “IL-5 Average SFC (allergics)” value was 0 SFC and the “IL-5 Average SFC (controls)” value came to 40 SFC. In addition, in assay [2], the “IFNg Average SFC (allergics)” value worked out at 0 SFC and the “IFNg Average SFC (controls)” value was found to be 108 SFC.
Regarding “SIIYALRGRAHVQVV [Ara h 3 15-mer, position 421; P19 pool member]”, in assay [1], the “IL-5 Average SFC (allergics)” value was found to be 400 SFC and the “IL-5 Average SFC (controls)” value stood at 358 SFC. For the same sequence, in assay [2], the “IFNg Average SFC (allergics)” value is 89 SFC and the “IFNg Average SFC (controls)” value came to 249 SFC.
The like results for “FCVLVLGASSVTFRQ [Ara h 3 15-mer, position 11]” were, in that order, 0 SFC, 28 SFC, 22 SFC and 0 SFC.
In the case of “NPINLREGEPDLSNN [Ara h 1 15-mer, position 396]”, the “IL-5 Average SFC (controls)” value in assay [1] amounted to 457 SFC. The “IFNg Average SFC (controls)” value in assay [2] turned out to be 240 SFC.
Consider “QEFLQHAFQVDRQTV [Ara h 3 15-mer, position 246]”, for which, in assay [1], the “IL-5 Average SFC (allergics)” value was determined as 57 SFC and the “IL-5 Average SFC (controls)” value turned out to be 2210 SFC. For the same sequence, in assay [2], the “IFNg Average SFC (allergics)” value worked out at 0 SFC and the “IFNg Average SFC (controls)” value amounted to 390 SFC.
As for “PHFNSKAMVIVVVNK [Ara h 1 15-mer, position 446]”, in assay [1], the “IL-5 Average SFC (allergics)” value turned out to be 113 SFC and the “IL-5 Average SFC (controls)” value worked out at 0 SFC. Further, in assay [2], the “IFNg Average SFC (allergics)” value is recorded as 0 SFC and the “IFNg Average SFC (controls)” value amounted to 0 SFC.
As to “QSENYEYLAFKTDSR [Ara h 3 15-mer, position 441]”, in assay [1], the “IL-5 Average SFC (allergics)” value was 0 SFC and the “IL-5 Average SFC (controls)” value is recorded as 419 SFC. Also, in assay [2], the “IFNg Average SFC (allergics)” value was found to be 0 SFC and the “IFNg Average SFC (controls)” value was 95 SFC.
For “AFQVDDRQIVQNLRG [Ara h 3 15-mer, position 276]”, in assay [1], the “IL-5 Average SFC (allergics)” value was 85 SFC and the “IL-5 Average SFC (controls)” value was determined as 10 SFC. For the same sequence, in assay [2], the “IFNg Average SFC (allergics)” value is on record as 0 SFC and the “IFNg Average SFC (controls)” value worked out at 0 SFC.
As to “LILRWLGLSAEYGNL [Ara h 3 15-mer, position 391]”, in assay [1], the “IL-5 Average SFC (allergics)” value came out at 53 SFC and the “IL-5 Average SFC (controls)” value amounted to 1880 SFC. Besides, in assay [2], the “IFNg Average SFC (allergics)” value was 32 SFC and the “IFNg Average SFC (controls)” value came to 0 SFC.
On the same counts, the results for “QAGENSIIDNLPEEV [Ara h 3 15-mer, position 461; P19 pool member]” are 79 SFC, 33 SFC, 61 SFC and 0 SFC.
With “FCFLVLGASSISFRQ [Ara h 3 15-mer, position 11]”, the “IL-5 Average SFC (controls)” value in assay [1] is given as 25 SFC. Moreover, the “IFNg Average SFC (controls)” value in assay [2] stood at 0 SFC.
Turning to “NTNAHSIIYALRGRA [Ara h 3 15-mer, position 416; P19 pool member]”, in assay [1], the “IL-5 Average SFC (allergics)” value worked out at 32 SFC and the “IL-5 Average SFC (controls)” value stood at 163 SFC. Further, in assay [2], the “IFNg Average SFC (allergics)” value worked out at 0 SFC and the “IFNg Average SFC (controls)” value is given as 77 SFC.
Regarding “QRSKQFQNLQNHRIV [Ara h 1 15-mer, position 201; P19 pool member]”, in assay [1], the “IL-5 Average SFC (allergics)” value stood at 0 SFC and the “IL-5 Average SFC (controls)” value is on record as 171 SFC. Also, in assay [2], the “IFNg Average SFC (allergics)” value is given as 0 SFC and the “IFNg Average SFC (controls)” value came out at 65 SFC.
Turning to “QEFLRYQQQSRQSRR [Ara h 3 15-mer, position 206; P19 pool member]”, in assay [1], the “IL-5 Average SFC (allergics)” value worked out at 295 SFC and the “IL-5 Average SFC (controls)” value amounted to 47 SFC. Also, in assay [2], the “IFNg Average SFC (allergics)” value is given as 15 SFC and the “IFNg Average SFC (controls)” value stood at 72 SFC.
With “QRSRQFQNLQNHRIV [Ara h 1 15-mer, position 201]”, in assay [1], the “IL-5 Average SFC (allergics)” value stood at 0 SFC and the “IL-5 Average SFC (controls)” value was determined as 216 SFC. In assay [2], the “IFNg Average SFC (allergics)” value was determined as 0 SFC and the “IFNg Average SFC (controls)” value is recorded as 102 SFC.
For the sequence “CMCEALQQIMENQSD [Ara h 2 15-mer, position 116]”, the “IL-5 Average SFC (controls)” value in assay [1] is reported as 59 SFC. The “IFNg Average SFC (controls)” value in assay [2] worked out at 0 SFC.
In the case of “SSELHLLGFGINAEN [Ara h 1 15-mer, position 523]”, in assay [1], the “IL-5 Average SFC (allergics)” value was determined as 492 SFC and the “IL-5 Average SFC (controls)” value was 0 SFC. Moreover, in assay [2], the “IFNg Average SFC (allergics)” value turned out to be 0 SFC and the “IFNg Average SFC (controls)” value amounted to 0 SFC.
For the sequence “DADNILVIQQGQATV [Ara h 1 15-mer, position 231]”, in assay [1], the “IL-5 Average SFC (allergics)” value stood at 25 SFC and the “IL-5 Average SFC (controls)” value is listed as 0 SFC. In assay [2], the “IFNg Average SFC (allergics)” value is 0 SFC and the “IFNg Average SFC (controls)” value stood at 37 SFC.
Turning to “ALFLLAAHASARQQW [Ara h 2 15-mer, position 11]”, in assay [1], the “IL-5 Average SFC (allergics)” value was found to be 11 SFC and the “IL-5 Average SFC (controls)” value was 270 SFC. For the same sequence, in assay [2], the “IFNg Average SFC (allergics)” value worked out at 0 SFC and the “IFNg Average SFC (controls)” value is listed as 545 SFC.
The like results for “QSDNFEYVAFKTDSR [Ara h 3 15-mer, position 466; P19 pool member]” were, in that order, 164 SFC, 123 SFC, 0 SFC and 373 SFC.
The like results for “GRIRVLQRFDQRSKQ [Ara h 1 15-mer, position 191; P19 pool member]” were, in that order, 253 SFC, 66 SFC, 49 SFC and 197 SFC.
Turning to “QEFECAGVALSRLVL [Ara h 3 15-mer, position 61]”, the “IL-5 Average SFC (controls)” value in assay [1] is given as 138 SFC. The “IFNg Average SFC (controls)” value in assay [2] is 0 SFC.
The like results for “QEFQCAGVALSRTVL [Ara h 3 15-mer, position 61]” were, in that order, 98 SFC and 34 SFC.
